Measured values: patent US20250073337A1, “NOVEL SKIN-PERMEABLE PEPTIDE, COMPOSITION INCLUDING THE SAME FOR SKIN AND MUCOUS MEMBRANE, AND USE THEREOF” (CELLICON LAB INC., priority 2022, published 2025)

Assays:
[1] = test system: HDF cells; test: Collagen production in HDF cells (Collagen type I ELISA); type: cell-based; conditions: mixture of peptide and KTTKS peptide vs KTTKS alone, 48 hours; FIG. 5
Protocol: In order to examine the efficacy improvement of the bioactive material due to the skin permeation effect of the active ingredient by the peptide of SEQ ID NO: 8, HDF cells were treated with a mixture of KTTKS peptide, which is a bioactive material, and the peptide of SEQ ID NO: 8, or treated with KTTKS peptide alone, and collagen production amounts were analyzed using an ELISA assay.
HDF cells used in this experiment were purchased from Thermo Fisher Scientific (Waltham, MA, USA). HDF cells were cultured in Dulbecco's Modified Eagle's Medium (DMEM) supplemented with 10% fetal bovine serum (FBS), 100 U/mL penicillin, and 100 μg/mL streptomycin (Gipco, Life Technologies, Grand Island, NY, USA) and cultured in a 5% CO2 incubator at 37° C.
HDF cells at a density of 2×10^5 cells/mL were dispensed in a volume of 250 μL in 48 wells and allowed to stabilize for 24 hours. Samples were treated at different concentrations and cultured in a CO2 incubator for 48 hours, and then each culture was obtained. […] 100 μL of TMB substrate was dispensed therein, left in the dark for 30 minutes, and treated with 50 μL of a stop solution, and then absorbance was measured at 450 nm with a microspectrophotometer (Molecular Device, Sunnyvale, CA, USA).

[2] = test system: human skin; conditions: mixture of peptide and fluorescein liposome (180 nm) vs liposome alone, 3 hours; FIG. 4
Protocol: Aqueous solutions were then obtained through Franz diffusion cell assay, and FITC fluorescence values were analyzed using a fluorescence microplate reader (SpectraMax i3, Molecular Devices, USA).
Fluorescein was liposomized using a liposome kit purchased from Sigma Aldrich (MO, USA) and liposomizing Fluorescein was used as liposome for the skin permeability tests.

[3] = test system: real human skin; conditions: mixture of peptide and lidocaine, 2 mM sample, 6 hours; compared with known peptide (TAT) and with lidocaine alone; FIG. 1
Protocol: A mixture of skin-permeable peptides consisting of any one amino acid sequence selected from SEQ ID NO: 5 to SEQ ID NO: 8 and derivatives thereof of SEQ ID NO: 1 to SEQ ID NO: 4, or the known peptide and lidocaine, or lidocaine alone was treated to evaluate skin permeability.
In detail, to evaluate the skin permeability, real human skin was used and the skin permeability was measured by a Franz diffusion cell assay, and the permeation amount of lidocaine was measured by HPLC and then compared.
Human skin used in this experiment was purchased from UMC Science Co., Ltd., Korea, and phosphate-buffered saline (PBS, Gibco, USA) was purchased from Sigma-Aldrich. […]
The temperature of the receptor fluid was maintained constant at 32° C.±1° C., and the humidity was maintained at 30-70%, followed by stabilization for 30 minutes. […] 6 hours later, sampling was performed through a sampling arm of the receptor, and for quantification, STD (100 μM standard sample) and the sample were analyzed through HPLC, and the permeability was expressed as a percentage (%) as compared to STD.

[4] = test system: actual human skin; conditions: mixture of peptide and caffeine vs caffeine alone, measured over time; FIG. 2
Protocol: A mixture of the skin-permeable peptide of SEQ ID NO: 8 and caffeine or caffeine alone was treated to evaluate skin permeability thereof.
In detail, Franz diffusion cell assay was performed using actual human skin as in Example 1, and the permeation amount of caffeine was measured by HPLC and then compared (FIG. 2).

[5] = test system: human skin; conditions: mixed with peptide vs treated alone; FIG. 3
Protocol: The FITC conjugation method was performed in accordance with the manufacturer's instructions by purchasing an FITC conjugation kit (Lightning-Link® (ab188285)) from Abcam (Cambridge, MA, USA).

In the case of “H-RKLFRKILKYLR-OH [SEQ ID NO: 8, H2N-[Arg-Lys-Leu-Phe-Arg-Lys-Ile-Leu-Lys-Tyr-Leu-Arg]-CO2H]”, the “production amount of collagen” value [1] is reported as “significantly increased”, the “skin permeation effect of the liposome” value [2] is reported as “remarkably increased” and the “skin permeation amount of lidocaine” value [3] is reported as “highest effect”. For the same substance, the “skin permeation amount of caffeine” value [4] was “significantly superior”, the “skin permeability effect of 3 kDa FITC-conjugated collagen” value [5] was “strong skin permeability effects” and the “skin permeability effect of 30 kDa FITC-conjugated collagen” value [5] was “strong skin permeability effects”. The “skin permeability effect of 300 kDa FITC-conjugated collagen” value [5] was “strong skin permeability effects” and the “skin permeability effect of 800 kDa hyaluronic acid (HA)” value [5] was “strong skin permeability effects”.
